Assay results reported in US11931347B2, “Method of screening for agents for differentiating stem cells” (MINERVA BIOTECHNOLOGIES CORPORATION, priority 2015, dated 2024).

Legend:
T47D breast cancer cells = assay: cancer cell proliferation assay (Calcein live cell stain); type: cell-based, human; settings: live cell Calcein stain, 96 hours (FIG. 113)
[1] = test system: SK-OV-3 MUC1* positive ovarian cancer cells; assay: cancer cell proliferation assay (Calcein); type: cell-based; settings: 96 hours (FIG. 112)
Description: Small molecule inhibition of cancer cell proliferation studies were also performed on several cancer sub-types. […] The small molecules of the invention had the most robust effect on T47D breast cancer cells, which are highly positive for MUC1* growth factor receptor, and its activating ligands NME7AB and NME7-X1. […] For the cancer cell proliferation experiment cancer cells were plated at constant densities (6000 cells/well) into a 96-well White-walled/Clear-bottom Tissue Culture Treated plate (Corning Incorporated, Big Flats, N.Y.). Small molecule analogs are added at T=24 hours in media with 2% FBS. […] […] Calcein fluorescence (final concentration 0.5 uM) is used to assess cell viability. Cancer cell fluorescence is measured in a TECAN SAFIRE^2 spectrophotometer plate reader. The plate is then imaged using an Olympus IX71 fluorescence imaging microscope and montage of the resulting images are assembled using ImageJ.

How did the “inhibition of growth of T47D cells” value (T47D breast cancer cells) turn out when `Cc1sc2c(c1C)C(c1ccc(Cl)cc1)=N[C@@H](CC(=O)OC(C)(C)C)c1nnc(C)n1-2` [JQ1+, JQ1] was run?
Its value is “inhibited growth”.

And the “effect on growth of SK-OV-3 cells” value [1]?
The value was “slight effect”.
